Values joined by “and” are separate entries in the source; they are usually repeats but may differ in a detail not shown here. Equal entries are not always repeated.
Assays:
Assay in all cases: radiometric filter-binding kinase assay, Kinase HotSpot
Conditions in all cases: compound 0.5 µM; ATP 10 µM
TLK2 (human) = TLK2 (human) (UniProt Q86UE8)
TSSK2 (human) = TSSK2 (human) (UniProt Q96PF2)
EPHA6 (human) = EPHA6 (human) (UniProt Q9UF33)
TGFBR1 (human) = TGFBR1 (human) (UniProt P36897)
ADRBK1 (human) = ADRBK1 (human) (UniProt P25098)
DYRK2 (human) = DYRK2 (human) (UniProt Q92630)
PHKG2 (human) = PHKG2 (human) (UniProt P15735)
RPS6KA6 KD1 KD2 (human) = RPS6KA6 KD1 KD2 (human) (UniProt Q9UK32)
NEK3 (human) = NEK3 (human) (UniProt P51956)
NEK9 (human) = NEK9 (human) (UniProt Q8TD19)
PRKCD (human) = PRKCD (human) (UniProt Q05655)
LIMK1 (human) = LIMK1 (human) (UniProt P53667)
Chain of LIMK1 (human) (P53667 whole entry, looked up): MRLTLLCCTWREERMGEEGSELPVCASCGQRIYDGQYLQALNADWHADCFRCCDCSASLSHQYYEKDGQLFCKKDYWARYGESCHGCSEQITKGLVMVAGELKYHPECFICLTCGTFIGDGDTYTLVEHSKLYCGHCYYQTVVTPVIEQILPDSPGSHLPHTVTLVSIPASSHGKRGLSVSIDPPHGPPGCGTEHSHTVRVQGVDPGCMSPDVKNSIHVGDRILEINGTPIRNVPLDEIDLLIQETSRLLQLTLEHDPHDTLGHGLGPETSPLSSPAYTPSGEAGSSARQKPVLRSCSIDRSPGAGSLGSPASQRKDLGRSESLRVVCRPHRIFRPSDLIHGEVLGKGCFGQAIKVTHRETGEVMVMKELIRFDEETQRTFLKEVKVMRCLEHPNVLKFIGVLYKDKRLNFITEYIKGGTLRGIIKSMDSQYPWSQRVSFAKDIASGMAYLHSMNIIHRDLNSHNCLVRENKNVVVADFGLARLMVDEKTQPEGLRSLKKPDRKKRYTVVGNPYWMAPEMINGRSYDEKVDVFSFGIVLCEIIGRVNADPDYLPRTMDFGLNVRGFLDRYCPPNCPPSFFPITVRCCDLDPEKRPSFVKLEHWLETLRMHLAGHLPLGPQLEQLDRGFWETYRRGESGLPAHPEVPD

CAMK1G (human) = CAMK1G (human) (UniProt Q96NX5)
CDC42BPA (human) = CDC42BPA (human) (UniProt Q5VT25)
Chain of CDC42BPA (human) (Q5VT25 whole entry, looked up): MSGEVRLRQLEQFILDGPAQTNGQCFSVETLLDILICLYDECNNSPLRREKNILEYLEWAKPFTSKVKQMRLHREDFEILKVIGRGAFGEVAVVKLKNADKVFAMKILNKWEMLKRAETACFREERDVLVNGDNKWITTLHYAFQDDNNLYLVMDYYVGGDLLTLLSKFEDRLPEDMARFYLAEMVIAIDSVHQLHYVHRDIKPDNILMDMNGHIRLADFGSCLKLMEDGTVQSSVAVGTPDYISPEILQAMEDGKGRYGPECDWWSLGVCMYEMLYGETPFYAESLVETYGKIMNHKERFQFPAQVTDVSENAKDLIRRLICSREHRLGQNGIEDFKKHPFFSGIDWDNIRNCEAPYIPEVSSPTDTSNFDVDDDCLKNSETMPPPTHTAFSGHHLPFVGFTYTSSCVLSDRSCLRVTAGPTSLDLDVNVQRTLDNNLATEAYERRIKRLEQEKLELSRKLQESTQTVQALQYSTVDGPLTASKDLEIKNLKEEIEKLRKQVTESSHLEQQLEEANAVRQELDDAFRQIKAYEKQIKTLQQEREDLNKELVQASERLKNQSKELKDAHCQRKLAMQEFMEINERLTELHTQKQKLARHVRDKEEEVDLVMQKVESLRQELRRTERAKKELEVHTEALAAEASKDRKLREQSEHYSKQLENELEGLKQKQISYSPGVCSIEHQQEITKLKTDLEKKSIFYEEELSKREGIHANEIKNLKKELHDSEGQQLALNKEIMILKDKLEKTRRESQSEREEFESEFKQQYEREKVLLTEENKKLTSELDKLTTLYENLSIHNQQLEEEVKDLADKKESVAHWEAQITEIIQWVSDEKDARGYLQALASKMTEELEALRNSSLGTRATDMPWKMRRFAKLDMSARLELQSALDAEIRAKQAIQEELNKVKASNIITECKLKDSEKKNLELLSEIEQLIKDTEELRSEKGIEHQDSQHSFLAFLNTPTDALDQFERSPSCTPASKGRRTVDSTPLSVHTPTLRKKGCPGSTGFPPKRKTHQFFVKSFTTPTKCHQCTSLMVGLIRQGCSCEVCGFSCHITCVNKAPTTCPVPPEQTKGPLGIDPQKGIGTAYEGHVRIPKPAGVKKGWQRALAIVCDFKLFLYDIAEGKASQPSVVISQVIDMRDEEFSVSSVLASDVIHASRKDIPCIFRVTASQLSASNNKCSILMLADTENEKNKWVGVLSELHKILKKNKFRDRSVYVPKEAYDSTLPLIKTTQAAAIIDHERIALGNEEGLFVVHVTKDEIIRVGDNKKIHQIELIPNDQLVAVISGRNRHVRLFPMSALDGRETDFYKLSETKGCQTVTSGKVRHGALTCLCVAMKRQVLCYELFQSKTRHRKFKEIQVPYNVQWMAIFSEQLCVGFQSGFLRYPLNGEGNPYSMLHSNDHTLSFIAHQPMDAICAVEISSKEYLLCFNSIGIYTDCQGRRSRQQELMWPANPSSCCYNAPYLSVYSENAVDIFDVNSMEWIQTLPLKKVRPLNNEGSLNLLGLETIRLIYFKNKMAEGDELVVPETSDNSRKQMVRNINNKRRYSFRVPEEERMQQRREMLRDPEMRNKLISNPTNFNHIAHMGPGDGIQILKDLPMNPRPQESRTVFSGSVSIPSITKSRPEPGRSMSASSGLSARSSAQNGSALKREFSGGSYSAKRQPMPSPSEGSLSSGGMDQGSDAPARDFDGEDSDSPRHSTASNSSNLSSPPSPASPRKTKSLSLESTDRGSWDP

EPHB3 (human) = EPHB3 (human) (UniProt P54753)
FGFR4 (human) = FGFR4 (human) (UniProt P22455)
PHKG1 (human) = PHKG1 (human) (UniProt Q16816)
RAF1 (human) = RAF1 (human) (UniProt P04049)
MAP3K9 (human) = MAP3K9 (human) (UniProt P80192)
ABL1 (human) = ABL1 (human) (UniProt P00519)
ACVR1 (human) = ACVR1 (human) (UniProt Q04771)
IRAK4 (human) = IRAK4 (human) (UniProt Q9NWZ3)
DAPK2 (human) = DAPK2 (human) (UniProt Q9UIK4)
PTK2 (human) = PTK2 (human) (UniProt Q05397)
Chain of PTK2 (human) (Q05397 whole entry, looked up): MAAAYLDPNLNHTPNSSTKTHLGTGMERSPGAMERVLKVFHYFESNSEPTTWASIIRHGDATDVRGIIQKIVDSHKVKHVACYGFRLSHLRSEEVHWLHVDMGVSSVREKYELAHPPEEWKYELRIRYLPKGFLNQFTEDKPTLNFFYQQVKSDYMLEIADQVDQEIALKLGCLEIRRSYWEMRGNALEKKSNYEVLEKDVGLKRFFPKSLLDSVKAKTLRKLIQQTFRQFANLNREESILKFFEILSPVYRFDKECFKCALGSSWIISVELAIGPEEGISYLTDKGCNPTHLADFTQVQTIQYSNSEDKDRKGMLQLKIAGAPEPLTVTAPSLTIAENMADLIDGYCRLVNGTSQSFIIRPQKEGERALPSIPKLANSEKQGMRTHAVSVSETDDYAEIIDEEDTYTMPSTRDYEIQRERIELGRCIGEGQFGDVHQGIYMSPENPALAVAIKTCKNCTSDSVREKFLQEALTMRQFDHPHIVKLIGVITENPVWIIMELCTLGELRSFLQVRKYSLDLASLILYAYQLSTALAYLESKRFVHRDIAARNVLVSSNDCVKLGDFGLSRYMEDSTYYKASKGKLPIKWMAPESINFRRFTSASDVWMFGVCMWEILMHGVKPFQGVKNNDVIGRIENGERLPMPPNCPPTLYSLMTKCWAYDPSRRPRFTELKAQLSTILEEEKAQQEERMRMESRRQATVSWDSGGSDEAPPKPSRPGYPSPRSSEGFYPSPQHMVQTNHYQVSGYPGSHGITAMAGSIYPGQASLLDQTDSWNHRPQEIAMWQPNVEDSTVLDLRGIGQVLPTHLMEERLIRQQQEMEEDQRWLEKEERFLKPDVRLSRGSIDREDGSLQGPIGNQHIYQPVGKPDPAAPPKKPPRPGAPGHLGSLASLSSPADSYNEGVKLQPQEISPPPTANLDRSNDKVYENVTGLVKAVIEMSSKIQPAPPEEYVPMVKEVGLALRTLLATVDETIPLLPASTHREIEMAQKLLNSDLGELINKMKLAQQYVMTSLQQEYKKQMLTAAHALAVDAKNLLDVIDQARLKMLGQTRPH

DSTYK (human) = DSTYK (human) (UniProt Q6XUX3)
IGF1R (human) = IGF1R (human) (UniProt P08069)
NUAK2 (human) = NUAK2 (human) (UniProt Q9H093)
EPHB4 (human) = EPHB4 (human) (UniProt P54760)
CHEK1 (human) = CHEK1 (human) (UniProt O14757)
MET (human) = MET (human) (UniProt P08581)
SRMS (human) = SRMS (human) (UniProt Q9H3Y6)
Chain of SRMS (human) (Q9H3Y6 whole entry, looked up): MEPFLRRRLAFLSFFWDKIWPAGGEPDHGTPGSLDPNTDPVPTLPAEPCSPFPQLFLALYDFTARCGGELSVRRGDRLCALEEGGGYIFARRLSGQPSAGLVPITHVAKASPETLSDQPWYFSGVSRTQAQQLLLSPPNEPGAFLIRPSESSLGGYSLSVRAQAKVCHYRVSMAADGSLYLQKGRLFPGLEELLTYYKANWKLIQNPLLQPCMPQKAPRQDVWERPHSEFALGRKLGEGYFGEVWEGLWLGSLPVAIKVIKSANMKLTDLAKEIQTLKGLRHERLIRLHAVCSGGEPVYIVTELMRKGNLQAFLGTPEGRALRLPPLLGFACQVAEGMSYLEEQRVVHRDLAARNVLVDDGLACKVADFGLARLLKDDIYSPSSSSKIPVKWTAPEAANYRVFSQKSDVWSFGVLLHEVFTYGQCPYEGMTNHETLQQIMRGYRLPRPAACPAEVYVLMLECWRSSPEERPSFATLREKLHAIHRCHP

STK16 (human) = STK16 (human) (UniProt O75716)
STK25 (human) = STK25 (human) (UniProt O00506)
TEC (human) = TEC (human) (UniProt P42680)
Chain of TEC (human) (P42680 whole entry, looked up): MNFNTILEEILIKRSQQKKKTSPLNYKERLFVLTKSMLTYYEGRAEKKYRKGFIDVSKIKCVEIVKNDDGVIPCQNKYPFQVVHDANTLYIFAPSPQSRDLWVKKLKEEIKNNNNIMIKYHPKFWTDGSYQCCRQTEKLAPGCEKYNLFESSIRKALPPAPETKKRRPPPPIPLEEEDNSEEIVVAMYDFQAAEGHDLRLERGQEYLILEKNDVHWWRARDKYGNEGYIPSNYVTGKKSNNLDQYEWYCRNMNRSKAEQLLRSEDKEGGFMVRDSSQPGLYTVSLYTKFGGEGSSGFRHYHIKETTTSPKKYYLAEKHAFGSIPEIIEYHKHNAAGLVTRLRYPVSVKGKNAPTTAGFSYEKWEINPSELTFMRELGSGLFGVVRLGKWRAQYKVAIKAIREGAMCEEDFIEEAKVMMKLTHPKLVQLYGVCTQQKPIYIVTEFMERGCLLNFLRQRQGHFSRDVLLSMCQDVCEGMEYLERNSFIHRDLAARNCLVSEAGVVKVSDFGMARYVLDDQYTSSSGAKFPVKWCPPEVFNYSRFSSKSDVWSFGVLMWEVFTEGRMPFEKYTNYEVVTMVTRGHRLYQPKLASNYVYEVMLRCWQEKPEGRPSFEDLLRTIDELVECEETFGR

NEK6 (human) = NEK6 (human) (UniProt Q9HC98)
Chain of NEK6 (human) (Q9HC98 whole entry, looked up): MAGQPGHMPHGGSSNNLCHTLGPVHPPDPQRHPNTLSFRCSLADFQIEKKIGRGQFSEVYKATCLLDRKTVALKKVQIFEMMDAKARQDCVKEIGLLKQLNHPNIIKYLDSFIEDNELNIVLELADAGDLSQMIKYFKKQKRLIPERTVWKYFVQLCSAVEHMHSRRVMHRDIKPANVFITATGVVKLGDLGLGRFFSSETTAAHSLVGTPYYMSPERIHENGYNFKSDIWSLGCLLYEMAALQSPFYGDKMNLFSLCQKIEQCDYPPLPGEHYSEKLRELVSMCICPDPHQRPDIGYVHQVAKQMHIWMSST

ADRBK2 (human) = ADRBK2 (human) (UniProt P35626)
PDGFRA (human) = PDGFRA (human) (UniProt P16234)
LYN (human) = LYN (human) (UniProt P07948)
CDC42BPB (human) = CDC42BPB (human) (UniProt Q9Y5S2)

Row | Compound | residual activity (TSSK2 (human)) [%] | residual activity (TGFBR1 (human)) [%] | residual activity (ADRBK1 (human)) [%] | residual activity (DYRK2 (human)) [%] | residual activity (PHKG2 (human)) [%] | residual activity (RPS6KA6 KD1 KD2 (human)) [%] | residual activity (NEK3 (human)) [%] | residual activity (NEK9 (human)) [%] | residual activity (PRKCD (human)) [%] | residual activity (CDC42BPA (human)) [%] | residual activity (EPHB3 (human)) [%] | residual activity (FGFR4 (human)) [%] | residual activity (PHKG1 (human)) [%] | residual activity (MAP3K9 (human)) [%] | residual activity (ACVR1 (human)) [%] | residual activity (IRAK4 (human)) [%] | residual activity (DAPK2 (human)) [%] | residual activity (PTK2 (human)) [%] | residual activity (DSTYK (human)) [%] | residual activity (NUAK2 (human)) [%] | also measured
1 | O=C1NC(=O)c2c1c1c3ccccc3n3c1c1c2c2ccccc2n1C1CCC3O1 | 87.1 | 110 | 97.9 | 5.94 | 75.6 | 1.08 | 102 | 23.4 | 19 | 84 | 93.2 | 70.4 | 2.75 | 8.72 | 85.8 | 14 | 39.4 | 23.5 | 45.5 | 52 | residual activity (TLK2 (human)): 14.1%; residual activity (EPHA6 (human)): 63.9%; residual activity (LIMK1 (human)): 49.3%; residual activity (CAMK1G (human)): 56.5%; residual activity (RAF1 (human)): 121%; residual activity (ABL1 (human)): 72.7%; residual activity (IGF1R (human)): 63.8%; residual activity (EPHB4 (human)): 75.4%; residual activity (CHEK1 (human)): 3.63%; residual activity (MET (human)): 76.9%; residual activity (SRMS (human)): 105%; residual activity (STK16 (human)): 58.1%; residual activity (STK25 (human)): 34.4%; residual activity (TEC (human)): 142%; residual activity (NEK6 (human)): 93.1%; residual activity (ADRBK2 (human)): 101%; residual activity (PDGFRA (human)): 32.8%
2 | CNC(=O)c1cc(Oc2ccc(NC(=O)Nc3ccc(Cl)c(C(F)(F)F)c3)cc2)ccn1 | 102 | 94.1 | 112 | 98.9 | 91.3 | 97.3 | 97.2 | 95.4 | 104 | 85.2 | 95.5 | 104 | 94.3 | 103 | 98.7 | 99.6 | 111 | 102 | 97.7 | 101 | residual activity (TLK2 (human)): 84.8%; residual activity (EPHA6 (human)): 42%; residual activity (LIMK1 (human)): 76.8%; residual activity (CAMK1G (human)): 107%; residual activity (IGF1R (human)): 94.3%; residual activity (CHEK1 (human)): 173%; residual activity (MET (human)): 105%; residual activity (SRMS (human)): 107%; residual activity (LYN (human)): 88.1% and 98.8%; residual activity (CDC42BPB (human)): 102%; residual activity (STK16 (human)): 105%; residual activity (STK25 (human)): 104%; residual activity (TEC (human)): 101%; residual activity (NEK6 (human)): 105%; residual activity (ADRBK2 (human)): 98.4%; residual activity (PDGFRA (human)): 7.77%
3 | Cc1ccc(Nc2nccc(N(C)c3ccc4c(C)n(C)nc4c3)n2)cc1S(N)(=O)=O | 102 | 103 | 90.3 | 98.8 | 96.7 | 96.8 | 94.2 | 95.8 | 106 | 85.4 | 71.7 | 68.3 | 92.5 | 10.6 | 104 | 98.4 | 93 | 76 | 94.3 | 93.8 | residual activity (TLK2 (human)): 85.6%; residual activity (EPHA6 (human)): 80%; residual activity (RAF1 (human)): 9.43%; residual activity (EPHB4 (human)): 93.8%; residual activity (CHEK1 (human)): 110%; residual activity (SRMS (human)): 115%; residual activity (LYN (human)): 52.1% and 58.9%; residual activity (CDC42BPB (human)): 99.9%; residual activity (STK16 (human)): 43.8%; residual activity (STK25 (human)): 97.3%; residual activity (TEC (human)): 101%; residual activity (NEK6 (human)): 96.1%; residual activity (ADRBK2 (human)): 99.3%; residual activity (PDGFRA (human)): 13.9%
4 | Cc1ccc(S(=O)(=O)/C=C/C#N)cc1 | 103 | 103 | 102 | 102 | 109 | 95.4 | 108 | 95.6 | 95.6 | 96.4 | 104 | 94.3 | 95.8 | 96.9 | 101 | 161 | 100 | 104 | 97.8 | 88.4 | residual activity (LIMK1 (human)): 97.1%; residual activity (CAMK1G (human)): 99.9%; residual activity (RAF1 (human)): 104%; residual activity (ABL1 (human)): 98.7%; residual activity (IGF1R (human)): 93.5%; residual activity (EPHB4 (human)): 102%; residual activity (CHEK1 (human)): 97.5%; residual activity (MET (human)): 94.7%; residual activity (SRMS (human)): 98.8%; residual activity (LYN (human)): 101% and 108%; residual activity (CDC42BPB (human)): 96.4%; residual activity (STK16 (human)): 88.3%; residual activity (STK25 (human)): 89.6%; residual activity (TEC (human)): 144%; residual activity (NEK6 (human)): 108%; residual activity (ADRBK2 (human)): 99.1%; residual activity (PDGFRA (human)): 94.2%

— the kinase profiling compilation of Christmann-Franck et al. (2016)
